Results reported in the supplement of paper PMC10307832.

Experiments:
Assay in all cases: relative viability (nuclei count vs DMSO), 5 days (fraction); higher = more cells survive
[1] = compound: COc1cccc2c1C(=O)c1c(O)c3c(c(O)c1C2=O)C[C@@](O)(C(=O)CO)C[C@@H]3O[C@H]1C[C@H](N)[C@H](O)[C@H](C)O1 [Doxorubicin] + NC(=O)Nc1cc(-c2cccc(F)c2)sc1C(=O)N[C@H]1CCCNC1 [AZD7762] (partner 0.2 µM)
Outline: (§1)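 After 5 days of treatment, lung cancer cells in 1536-well plates were fixed and stained in a single step (final 0.05% Triton X-100, 1% formaldehyde, 1 ug/ml Hoechst) and their nuclei counted on 4× images. Treatment had been applied by pin tool the day after seeding as one drug alone or as a fixed anchor-drug dose with five library-drug doses (not always all listed) in √10 steps. Relative viability is the nuclei count of treated wells divided by that of vehicle wells, and values are medians of duplicate plates.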

[2] = compound: COC1=C(C=C(C=C1)C2=CC3=NC=CN3C(=N2)NC4=C(C=CC=N4)C(=O)N)OC [BAY61-3606] + CC(C)C[C@H](NC(=O)[C@H](Cc1ccccc1)NC(=O)c1cnccn1)B(O)O [Bortezomib] (partner 0.002 µM)
Outline: as §1

[3] = compound: COC1=C(C=C(C=C1)C2=CC3=NC=CN3C(=N2)NC4=C(C=CC=N4)C(=O)N)OC [BAY61-3606] + C[C@@H](Oc1cc(-c2cnn(C3CCNCC3)c2)cnc1N)c1c(Cl)ccc(F)c1Cl [Crizotinib] (partner 1 µM)
Outline: as §1

[4] = compound: COc1cccc2c1C(=O)c1c(O)c3c(c(O)c1C2=O)C[C@@](O)(C(=O)CO)C[C@@H]3O[C@H]1C[C@H](N)[C@H](O)[C@H](C)O1 [Doxorubicin] + CC(C)C[C@H](NC(=O)[C@H](Cc1ccccc1)NC(=O)c1cnccn1)B(O)O [Bortezomib] (partner 0.002 µM)
Outline: as §1

Row | Cell Line | relative viability ([1]; first compound 0.001 µM) | relative viability ([1]; first compound 0.003162 µM) | relative viability ([1]; first compound 0.01 µM) | relative viability ([1]; first compound 0.03162 µM) | relative viability ([1]; first compound 0.1 µM) | relative viability ([2]; first compound 0.02 µM) | relative viability ([2]; first compound 0.06325 µM) | relative viability ([2]; first compound 0.2 µM) | relative viability ([2]; first compound 0.6325 µM) | relative viability ([2]; first compound 2 µM) | relative viability ([3]; first compound 0.02 µM) | relative viability ([3]; first compound 0.06325 µM) | relative viability ([3]; first compound 0.2 µM) | relative viability ([3]; first compound 0.6325 µM) | relative viability ([3]; first compound 2 µM) | relative viability ([4]; first compound 0.001 µM) | relative viability ([4]; first compound 0.003162 µM) | relative viability ([4]; first compound 0.01 µM) | relative viability ([4]; first compound 0.03162 µM) | relative viability ([4]; first compound 0.1 µM)
1 | A-427 | 0.733 | 0.857 | 0.713 | 0.463 | 0.482 | 1.04 | 0.889 | 0.994 | 1.05 | 0.871 | 0.85 | 0.767 | 0.878 | 0.97 | 0.845 | 1.03 | 1.06 | 0.966 | 0.942 | 0.991
2 | NCI-H647 | 0.352 | 0.417 | 0.466 | 0.19 | 0.0766 | 1.16 | 1.06 | 1.19 | 1.07 | 0.696 | 1.09 | 1.1 | 0.963 | 1.03 | 0.506 | 1.03 | 1.04 | 0.907 | 0.213 | 0.111
3 | NCI-H1734 | 0.515 | 0.58 | 0.539 | 0.318 | 0.283 | 0.878 | 0.894 | 0.836 | 0.883 | 0.518 | 0.635 | 0.53 | 0.601 | 0.674 | 0.272 | 0.867 | 1.09 | 0.89 | 0.588 | 0.429
4 | NCI-H1915 | 0.694 | 0.761 | 0.644 | 0.688 | 0.714 | 0.929 | 1 | 0.9 | 0.925 | 0.913 | 0.899 | 0.914 | 0.857 | 0.868 | 0.707 | 0.994 | 0.943 | 0.927 | 0.94 | 1
5 | Calu-6 |  |  |  |  |  | 1.12 | 1.15 | 1.06 | 1.01 | 0.831 | 0.765 | 0.77 | 0.67 | 0.732 | 0.352 | 0.897 | 1.01 | 0.804 | 0.408 | 0.248
6 | NCI-H441 | 1.05 | 1.07 | 0.954 | 0.853 | 0.912 | 0.729 | 0.51 | 0.479 | 0.607 | 0.434 | 0.668 | 0.788 | 0.833 | 0.771 | 0.414 |  | 0.452 | 0.392 | 0.295 | 0.315
7 | HCC-366 | 0.278 | 0.234 | 0.233 | 0.117 | 0.0686 | 1.04 | 1.16 | 1.1 | 0.998 | 0.964 | 0.506 | 0.495 | 0.566 | 0.461 | 0.162 |  | 1.06 | 1.05 | 0.326 | 0.0968
8 | EMC-BAC-2 | 1.11 | 1.03 | 0.89 | 0.636 | 0.691 | 1.11 | 1.13 | 1.06 | 1.09 | 1.08 | 0.775 | 0.696 | 0.755 | 0.817 | 0.573 | 1.11 | 1.1 | 0.997 | 0.518 | 0.451
